Assay results: patent US10294271B1, “Compound, composition, and method for detecting caspase activity and/or apoptosis” (Vanderbilt University, priority 2013, dated 2019)
Blank lines part the entries; values can stand above or below the molecule they belong to.

Columns and labels:
DLD-1 cells = test: In vitro drug exposure, immunoblot of cleaved PARP and cleaved caspase-3, DLD-1 cells; format: cell-based, human; details: 24 h, 0-5000 nM
Protocol: (§1) For cell cycle analysis, SW620 and DLD-1 cells were propagated to 50% confluency in 6 cm plates and treated with AZD-1152-hydroxyquinazoline pyrazol anilide (HQPA) (Selleckchem), 0, 10, 100, 1000, or 5000 nM, for 24 or 48 hrs and prepared for flow cytometry as described (2). Propidium iodide (PI)-stained cells were analyzed by flow cytometry (FACStar PLUS, Becton-Dickinson). Data analysis was performed using CellQuest software (Becton-Dickinson) by manually gating to define and quantify sub-G0, G1, S, G2/M, and polyploidy populations. For assay of apoptosis following in vitro AZD-1152-HQPA exposure, SW620 and DLD-1 cells were seeded as sub-confluent monolayer cultures at a density of 1×10^4 per well into 96-well, black wall/bottom plates (BD Biosciences), allowed to adhere for 24 h, and treated with AZD-1152-HQPA, 0, 10, 50, 75, 100, or 1,000 nM, for 24 hrs. Apoptosis was assessed using the Caspase-Glo 3/7 reagent, in accordance with manufacturer's instructions, and analyzed using a Synergy 4 plate reader.
(§2) After 24 h of drug exposure, in vitro cell samples were collected from 10-cm plates. Medium was removed and cell monolayers washed with 1× phosphate buffered saline (PBS) followed by addition of […] of lysis buffer containing: 7 mL of CelLytic M lysis buffer (Sigma), mini protease inhibitor cocktail (Roche), and […] of phosphatase inhibitor cocktail 1 and 2 (Sigma). […]

SW620 cells = test: In vitro drug exposure, immunoblot of cleaved PARP and cleaved caspase-3, SW620 cells; format: cell-based, human; details: 24 h, 0-5000 nM
Protocol: as §1, §2

SW620 xenografts = test: Cleaved caspase-3 immunohistochemistry, SW620 xenografts; format: in vivo, athymic nude mice; details: after imaging Day 5
Protocol: Dual xenograft-bearing mice were sequentially injected with 1×10^7 SW620 and 5×10^6 DLD-1 human CRC cells subcutaneously onto the left or right hind limbs (respectively) of 5- to 6-week old female, athymic nude mice (Harlan Sprague-Dawley). Palpable tumors were observed 2-3 weeks following inoculation. Animals bearing SW620 and DLD-1 xenograft tumors were treated with vehicle or AZD-1152 (25 mg/kg, DMSO) via intraperitoneal injection once daily for five days, analogous to previous work. In vivo PET imaging studies were performed on Day 5, approximately 4-6 h after treatment. Tumor tissues were harvested immediately following conclusion of imaging, fixed for 24 h in 5% buffered formalin, and blocked in paraffin. Immunohistochemistry for cleaved caspase-3 (Cell Signaling, #9664) was carried out as previously described. Tissues were stained using standard H&E methods and reviewed by an expert gastrointestinal pathologist (M. Kay Washington). […] Semi-quantitative IHC analysis was performed using the image processing software ImageJ and is further described below. For semi-quantitative analysis of cleaved caspase-3 IHC, the public domain image processing software ImageJ was used to selectively measure the area of positive staining of each cohort through manual threshold manipulation of hue, pixel saturation, and brightness. […]

caspase-3 = biological target: T1, caspase-3 (Homo sapiens, UniProt P42574); test: Enzyme selectivity assay, caspase-3; format: biochemical; details: fluorescence assay kit, 0.0003-10 μM
T1 construct: purchased BPS Bioscience
T1 sequence (P42574 29-175 limits assumed): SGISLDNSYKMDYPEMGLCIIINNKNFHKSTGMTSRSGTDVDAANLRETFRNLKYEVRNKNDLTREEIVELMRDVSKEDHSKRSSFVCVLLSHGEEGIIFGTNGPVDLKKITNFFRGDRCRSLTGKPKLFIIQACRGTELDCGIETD
T1 sequence (P42574 176-277 limits assumed): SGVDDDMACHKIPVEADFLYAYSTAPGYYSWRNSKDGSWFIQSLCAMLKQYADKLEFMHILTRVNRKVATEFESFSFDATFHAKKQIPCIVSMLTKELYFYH
Protocol: (§3) Relative enzyme inhibition of [^19F]FB-VAD-FMK was evaluated against caspase-3/6/7/8 using homogeneous caspase fluorescence assay kits (BPS Bioscience) and compared to parent peptide. Caspase inhibitor dissolved in caspase assay buffer and 1% DMSO (0.0003-10 μM) was combined with the caspase assay substrate and enzyme at room temperature for 30 min in accordance with the manufacturer's instructions. Fluorescence intensity was measured at an excitation of 360 nm and an emission of 460 nm using an Infinite M1000 microplate reader (Tecan).

caspase-7 = biological target: T2, caspase-7 (Homo sapiens, UniProt P55210); test: Enzyme selectivity assay, caspase-7; format: biochemical; details: fluorescence assay kit, 0.0003-10 μM
T2 construct: purchased BPS Bioscience
T2 sequence (P55210 24-198 limits assumed): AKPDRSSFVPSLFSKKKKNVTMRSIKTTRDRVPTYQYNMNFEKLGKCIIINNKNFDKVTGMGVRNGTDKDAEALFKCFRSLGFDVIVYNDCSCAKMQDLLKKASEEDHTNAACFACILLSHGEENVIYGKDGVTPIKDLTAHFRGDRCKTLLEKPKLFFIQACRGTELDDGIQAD
T2 sequence (P55210 207-303 limits assumed): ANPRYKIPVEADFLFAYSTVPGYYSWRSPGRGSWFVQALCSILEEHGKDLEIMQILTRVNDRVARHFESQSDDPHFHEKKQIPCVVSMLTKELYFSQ
Protocol: as §3

caspase-8 = biological target: T3, caspase-8 (Homo sapiens, UniProt Q14790); test: Enzyme selectivity assay, caspase-8; format: biochemical; details: fluorescence assay kit, 0.0003-10 μM; compared with caspases-3/6/7
T3 construct: purchased BPS Bioscience
T3 sequence (Q14790 217-374 limits assumed): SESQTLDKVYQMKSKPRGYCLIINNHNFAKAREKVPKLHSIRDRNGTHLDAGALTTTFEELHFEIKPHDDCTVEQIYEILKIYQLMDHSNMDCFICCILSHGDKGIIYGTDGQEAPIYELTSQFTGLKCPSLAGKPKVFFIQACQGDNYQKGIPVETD
T3 sequence (Q14790 385-479 limits assumed): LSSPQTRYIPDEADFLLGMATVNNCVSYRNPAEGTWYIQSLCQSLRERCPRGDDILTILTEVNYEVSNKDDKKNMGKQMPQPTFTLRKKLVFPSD
Protocol: as §3

caspase-6 = biological target: T4, caspase-6 (Homo sapiens, UniProt P55212); test: Enzyme selectivity assay, caspase-6; format: biochemical; details: fluorescence assay kit, 0.0003-10 μM
T4 construct: purchased BPS Bioscience
T4 sequence (P55212 24-179 limits assumed): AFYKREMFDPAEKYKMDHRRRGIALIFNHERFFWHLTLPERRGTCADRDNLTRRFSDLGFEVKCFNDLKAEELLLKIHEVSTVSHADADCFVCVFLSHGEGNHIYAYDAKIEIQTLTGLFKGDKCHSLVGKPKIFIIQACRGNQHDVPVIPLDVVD
T4 sequence (P55212 194-293 limits assumed): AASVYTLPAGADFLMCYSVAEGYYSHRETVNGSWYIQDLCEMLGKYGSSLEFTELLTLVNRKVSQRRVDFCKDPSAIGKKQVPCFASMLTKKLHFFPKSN
Protocol: as §3

[1] = test system: caspase-3/7 activity in DiFi cells; test: Cellular caspase inhibition assay (Caspase-Glo 3/7); format: cell-based
Protocol: DiFi cells were propagated in Dulbecco's Modified Eagle's Medium (DMEM, Mediatech) and supplemented with 10% fetal bovine serum (Atlanta Biologicals) and 1 mg/mL gentamycin sulfate (Gibco) in a 95% humidity, 5% CO2, 37° C. atmosphere. Cells were seeded as sub-confluent monolayer cultures at a density of 1×10^4 per well into 96-well, black wall/bottom plates (BD Biosciences) and allowed to adhere for 24 h at 37° C. […] Cell media was then replaced with 1×PBS containing inhibitor (0, 10, 100, 1000, 10000 nM) and incubated at 37° C. for 30 min Inhibition was assessed using Caspase-Glo 3/7 reagent in accordance with the manufacturer's instructions. Luminescence was quantified using a Synergy 4 plate reader.

[2] = Lipophilicity (log P7.5) by reversed phase HPLC; format: physicochemical; details: for log P7.5: reversed phase HPLC, phosphate buffer pH 7.5, standard curve
Protocol: [^19F]FB-VAD-FMK and [^127I]IZ-VAD-FMK were synthesized as described below. VAD-FMK (American Peptide) and Z-VAD-FMK (TOCRIS Bioscience, #2163) were obtained commercially and used without further purification. Relative enzyme selectivity of [^19F]FB-VAD-FMK compared to parent peptide was evaluated as described below. Lipophilicity measurements (Log P7.5) of peptide derivatives were determined analogously to reported methods and described below.
Lipophilicity characterization of compounds (3) and (5), as well as Z-VAD-FMK, was performed through log P7.5 quantification using methodology analogous to those previously reported (1). Using reversed phase HPLC (Phenomenex Luna C18, 5 μm, 100 Å, 4.6×250 mm) and a (85:15) phosphate buffer (2 mM, pH 7.5) isocratic system (1 mL/min), log P7.5 values were calculated using an average of compound retention times from three individual runs and standard curve derived linear regression. The following standards with known log P values were used for curve development: catechol, aniline, benzene, bromobenze, toluene, ethylbenzene, 2-chlorobiphenyl, biphenyl, 1-chloronaphthalene, 1,2,3-trimethylbenzene, 1,2,3,4-tetrachlorobenzene, 1,2,4,5-tetrabromobenzene, and pentachlorobenzene.

[3] = design: species or system male C57BL/6 mice; details: mouse, in vivo, iv
Protocol: Studies involving animals were conducted in accordance with federal and institutional guidelines. Biodistribution studies were performed using male C57BL/6 mice. A detailed description of in vitro drug response studies that support the subsequently described animal models and drug therapies is provided below. For all imaging studies, mice were maintained under 2% isofluorane anesthesia in 100% oxygen at 2 L/min and kept warm via a circulating water heating pad for the duration of the PET scan. Small-animal PET imaging was performed using a dedicated Concorde Microsystems Focus 220 microPET scanner (Siemens Preclinical Solutions). Animals were administered 7.4-9.3 MBq of [^18F]FB-VAD-FMK via intravenous injection. Both static and dynamic data sets were acquired. For static scans, animals were allowed free access to food and water during a 20-40 minute uptake period, followed by anesthetization and a 20-minute image acquisition. Analogously, sixty minute dynamic acquisitions for all xenografts were initiated at the time of [^18F]FB-VAD-FMK injection. Radiochemical preparation of [^18F]FB-VAD-FMK (Fig. S3) was performed as described above. The in vivo biodistribution of [^18F]FB-VAD-FMK was evaluated by ex vivo tissue counting at 60 min post-administration and correlative PET imaging up to 75 min post-administration.

[4] = in vivo

Molecule: CCN(CCO)CCCOc1ccc2c(Nc3cc(CC(=O)Nc4cccc(F)c4)[nH]n3)ncnc2c1 [AZD-1152-HQPA, AZD-1152-hydroxyquinazoline pyrazol anilide]
cleaved PARP and cleaved caspase-3 levels (DLD-1 cells): concentration-dependent increases | cleaved PARP and cleaved caspase-3 levels (SW620 cells): concentration-dependent increases

Molecule: CCN(CCCOc1ccc2c(Nc3cc(CC(=O)Nc4cccc(F)c4)n[nH]3)ncnc2c1)CCOP(=O)(O)O [AZD-1152]
caspase-3 immunoreactivity compared to vehicle (SW620 xenografts): elevated caspase-3 immunoreactivity

Molecule: benzyloxycarbonyl-Val-Ala-Asp(OMe)-fluoromethylketone [Z-VAD-FMK, obtained commercially (TOCRIS Bioscience, #2163), reference compound]
log P7.5 [2]: 2.20

Further lines, with some results ahead:

inhibition potency, caspase-3 (caspase-3): single micro molar potency | inhibition potency, caspase-7 (caspase-7): single micro molar potency | inhibition potency, caspase-8 (caspase-8): slightly greater potency | inhibition potency, caspase-6 (caspase-6): single micro molar potency | times less lipophilic than Z-VAD-FMK and [^127I]IZ-VAD-FMK ([2]; from log P7.5 values): 50-100 times | log P7.5 [2]: 1.41
Molecule: COC(=O)C[C@H](NC(=O)[C@H](C)NC(=O)[C@@H](NC(=O)c1ccc(F)cc1)C(C)C)C(=O)CF [[^19F]FB-VAD-FMK]
inhibition of caspase-3/7 activity ([1]; DiFi cells in log-phase growth (untreated)): nanomolar concentrations | inhibition of caspase-3/7 activity ([1]; DiFi cells, apoptosis induced by cetuximab 0.5 μg/mL 24 h): comparable efficacy to the parent peptide

inhibition potency, caspase-3 (caspase-3): single micro molar potency | inhibition potency, caspase-7 (caspase-7): single micro molar potency | inhibition potency, caspase-8 (caspase-8): slightly greater potency | inhibition potency, caspase-6 (caspase-6): single micro molar potency
Molecule: Val-Ala-Asp(OMe)-fluoromethylketone [VAD-FMK, American Peptide, reference compound]

radioactivity in brain, lung, or bone [3]: Very little radioactivity | tissue activity in kidneys and liver [3]: greatest activity | parent compound in bile and urine samples [4]: ≥ 50%
Molecule: [^18F]4-fluorobenzylcarbonyl-Val-Ala-Asp(OMe)-fluoromethylketone [[^18F]FB-VAD-FMK]

log P7.5 [2]: 2.38
Molecule: [^127I]4-iodobenzyloxycarbonyl-Val-Ala-Asp(OMe)-fluoromethylketone [[^127I]IZ-VAD-FMK]
